Test results: ChEMBL document CHEMBL4725437, “P450s under Restriction (PURE) Screen Using HepaRG and Primary Human Hepatocytes for Discovery of Novel HBV Antivirals” (ACS Med Chem Lett, 2020)
Calls of active or inactive are those of the source. The calls are words filed in the database; no cut-off is given here.

Columns and labels:
[1] = (§1) Ratio of EC50 for antiviral activity against Hepatitis B virus infected in human HepaRG cells assessed as fold change for inhibition of HBV DNA replication under normal condition to EC50 for inhibition of HBV DNA replication under CYP450 restriction pre-treated for 1 hr with CYP450 inhibitors ABT and SKF-525A on day 5 post-infection followed by removal of media and supplemented with fresh media containing diluted compound and further incubated for 3 days then followed by treatment for 1 hr with CYP450 inhibitors ABT and SKF-525A on day 8 post-infection followed by removal of media and supplemented with fresh media containing diluted compound and further incubated for 3 days in presence of 25 uM SKF-525A and measured on day 11 post-infection by chemiluminescence immunostaining assay; assay type: functional; conditions: time 6 day
[2] = Half life in human primary hepatocytes at 1 uM measured up to 3 hrs by LC-MS/MS analysis; assay type: ADME, cell-based, Hepatocyte
Hepatitis B virus [3] = assay: Antiviral activity against Hepatitis B virus infected in human HepaRG cells assessed as inhibition of […] measured on day 11 post-infection by chemiluminescence immunostaining assay; assay type: functional, organism-based; conditions: 264 h
[4] = Cytotoxicity against human HepaRG cells assessed as effect on cell viability; assay type: cell-based
Hepatitis B virus [5] = assay: as §1, with “Antiviral” for “Ratio of EC50 for antiviral”, “as” for “as fold change for inhibition of HBV DNA replication under normal condition to EC50 for”; assay type: functional, organism-based
[6] = Half life in human primary hepatocytes at 1 uM measured up to 3 hrs under CYP450 restriction in presence of CYP450 inhibitiors ABT and SKF-525A by LC-MS/MS analysis; assay type: ADME, cell-based, Hepatocyte
CYP1A2 [7] = target: T1, CYP1A2 (Homo sapiens, UniProt P05177); assay: (§2) Inhibition of CYP1A2 in HBV-infected human HepaRG cells at 50 uM using luciferin-1A2 as substrate treated for 1 hr on day 5 post-infection followed by removal of media and supplemented with fresh media and further incubated for 3 days by P450-Glo chemiluminescent assay relative to control; assay type: ADME, tissue-based; conditions: probe luciferin-1A2
T1 sequence (P05177 whole entry): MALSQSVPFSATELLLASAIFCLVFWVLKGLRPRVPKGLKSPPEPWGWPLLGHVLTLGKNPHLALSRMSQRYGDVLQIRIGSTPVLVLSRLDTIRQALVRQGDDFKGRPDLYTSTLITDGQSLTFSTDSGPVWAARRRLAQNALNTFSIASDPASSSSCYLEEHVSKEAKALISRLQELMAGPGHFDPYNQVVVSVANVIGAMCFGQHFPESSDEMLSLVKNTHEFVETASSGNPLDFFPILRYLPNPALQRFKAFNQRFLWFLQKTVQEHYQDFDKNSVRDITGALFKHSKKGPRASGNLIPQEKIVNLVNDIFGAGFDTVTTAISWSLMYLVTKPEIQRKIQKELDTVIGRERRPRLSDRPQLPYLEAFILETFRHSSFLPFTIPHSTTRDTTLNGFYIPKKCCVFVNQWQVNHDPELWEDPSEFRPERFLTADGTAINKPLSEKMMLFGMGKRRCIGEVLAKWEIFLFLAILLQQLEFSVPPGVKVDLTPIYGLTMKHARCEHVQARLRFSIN

Hepatitis B virus [8] = assay: (§3) Antiviral activity against Hepatitis B virus infected in human primary hepatocytes assessed as reduction in HbsAg secretion level at 50 uM treated for 1 hr on day 5 post-infection followed by removal of media and supplemented with fresh media and further incubated for 3 days then followed by treatment for 1 hr on day 8 post-infection followed by removal of media and supplemented with fresh media and further incubated for 3 days in presence of 10 mM ABT and measured on day 11 post-infection by chemiluminescence immunostaining assay relative to control; assay type: functional, organism-based; conditions: Primary hepatocyte
Cytochrome P450 1A2 [9] = target: T2, Cytochrome P450 1A2 (Homo sapiens, UniProt P05177); assay: (§4) Inhibition of CYP1A2 in HBV-infected human HepaRG cells at 5 to 100 uM using luciferin-1A2 as substrate treated for 1 hr on day 5 post-infection followed by removal of media and supplemented with fresh media and further incubated for 3 days then followed by treatment for 1 hr on day 8 post-infection followed by removal of media and supplemented with fresh media and further incubated for 3 days and measured on day 11 post-infection by P450-Glo chemiluminescent assay; assay type: ADME, tissue-based; conditions: dose 5-100 µM
T2 sequence (P05177 whole entry): T1 sequence (P05177 whole entry)

Hepatitis B virus [10] = assay: as §3, with “25” for “50”, “assay” for “assay relative to control”; assay type: functional, Primary hepatocyte; design: scale not given: the % may be the effect or the level left
HepaRG [11] = assay: as §4, with “Cytotoxicity against” for “Inhibition of CYP1A2 in HBV-infected”, “cells infected with HBV assessed as reduction in cell viability” for “cells”, “uM” for “uM using luciferin-1A2 as substrate”, “Celltiter-Glo” for “P450-Glo chemiluminescent”; assay type: cell-based; conditions: dose 5-100 µM
Cytochrome P450 1A2 [12] = target: T2, Cytochrome P450 1A2; assay: as §4, with “primary hepatocytes” for “HepaRG”; assay type: ADME, tissue-based, Primary hepatocyte; conditions: dose 5-100 µM
CYP3A4 [13] = target: T3, CYP3A4 (Homo sapiens, UniProt P08684); assay: as §2, with “CYP3A4” for “CYP1A2”, “luciferin-IPA” for “luciferin-1A2”, “days in presence of 10 mM ABT” for “days”; assay type: ADME, tissue-based; conditions: probe luciferin-IPA, with ABT 10 mM
CYP2C9 [14] = target: T4, CYP2C9 (Homo sapiens, UniProt P11712); assay: (§5) Inhibition of CYP2C9 in HBV-infected human HepaRG cells at 50 uM using luciferin-H as substrate treated for 1 hr on day 5 post-infection followed by removal of media and supplemented with fresh media and further incubated for 3 days then followed by treatment for 1 hr on day 8 post-infection followed by removal of media and supplemented with fresh media and further incubated for 3 days in presence of 10 mM ABT and measured on day 11 post-infection by P450-Glo chemiluminescent assay relative to control; assay type: ADME, tissue-based; conditions: probe luciferin-H, with ABT 10 mM
CYP2C9 [15] = target: T4, CYP2C9; assay: (§6) Inhibition of CYP2C9 in HBV-infected human HepaRG cells at 50 uM using luciferin-H as substrate treated for 1 hr on day 5 post-infection followed by removal of media and supplemented with fresh media and further incubated for 3 days by P450-Glo chemiluminescent assay relative to control; assay type: ADME, tissue-based; conditions: probe luciferin-H
HepaRG [16] = assay: (§7) Cytotoxicity against human HepaRG cells infected with HBV assessed as reduction in cell viability at 50 uM treated for 1 hr on day 5 post-infection followed by removal of media and supplemented with fresh media and further incubated for 3 days then followed by treatment for 1 hr on day 8 post-infection followed by removal of media and supplemented with fresh media and further incubated for 3 days in presence of 10 mM ABT and measured on day 11 post-infection by Celltiter-Glo assay; assay type: cell-based
CYP3A4 [17] = target: T3, CYP3A4; assay: (§8) Inhibition of CYP3A4 in HBV-infected human HepaRG cells at 50 uM using luciferin-IPA as substrate treated for 1 hr on day 5 post-infection followed by removal of media and supplemented with fresh media and further incubated for 3 days by P450-Glo chemiluminescent assay relative to control; assay type: ADME, tissue-based; conditions: probe luciferin-IPA
Cytochrome P450 3A4 [18] = target: T5, Cytochrome P450 3A4 (Homo sapiens, UniProt P08684); assay: as §4, with “CYP3A4” for “CYP1A2”, “primary hepatocytes” for “HepaRG cells”, “luciferin-IPA” for “luciferin-1A2”; assay type: ADME, tissue-based, Primary hepatocyte; conditions: dose 5-100 µM
CYP1A2 [19] = target: T1, CYP1A2; assay: as §5, with “CYP1A2” for “CYP2C9”, “luciferin-1A2” for “luciferin-H”; assay type: ADME, tissue-based; conditions: probe luciferin-1A2, with ABT 10 mM
Cytochrome P450 2C9 [20] = target: T6, Cytochrome P450 2C9 (Homo sapiens, UniProt P11712); assay: as §4, with “CYP2C9” for “CYP1A2”, “luciferin-H” for “luciferin-1A2”; assay type: ADME, tissue-based; conditions: dose 5-100 µM
CYP2C9 [21] = target: T4, CYP2C9; assay: as §6, with “days in presence of 10 mM ABT” for “days”; assay type: ADME, tissue-based; conditions: probe luciferin-H, with ABT 10 mM
Cytochrome P450 3A4 [22] = target: T5, Cytochrome P450 3A4; assay: as §4, with “CYP3A4” for “CYP1A2”, “luciferin-IPA” for “luciferin-1A2”; assay type: ADME, tissue-based; conditions: dose 5-100 µM
CYP3A4 [23] = target: T3, CYP3A4; assay: as §8, with “days then followed by treatment for 1 hr on day 8 post-infection followed by removal of media and supplemented with fresh media and further incubated for 3 days and measured on day 11 post-infection” for “days”; assay type: ADME, tissue-based; conditions: probe luciferin-IPA
Cytochrome P450 2C9 [24] = target: T6, Cytochrome P450 2C9; assay: as §4, with “CYP2C9” for “CYP1A2”, “primary hepatocytes” for “HepaRG cells”, “luciferin-H” for “luciferin-1A2”; assay type: ADME, tissue-based, Primary hepatocyte; conditions: dose 5-100 µM
CYP1A2 [25] = target: T1, CYP1A2; assay: as §4, with “50” for “5 to 100”, “assay relative to control” for “assay”; assay type: ADME, tissue-based; conditions: probe luciferin-1A2
Hepatocyte = assay: as §7, with “primary hepatocytes” for “HepaRG cells”, “assay relative to control” for “assay”; assay type: cell-based
CYP1A2 [26] = target: T1, CYP1A2; assay: as §2, with “days in presence of 10 mM ABT” for “days”; assay type: ADME, tissue-based; conditions: probe luciferin-1A2, with ABT 10 mM
Hepatitis B virus [27] = assay: as §3, with “in human HepaRG cells assessed as” for “in human primary hepatocytes assessed as”, “for 3 B37days then followed” for “for 3 days then followed”, “immunostaining assay” for “immunostaining assay relative to control”; assay type: functional, organism-based
CYP3A4 [28] = target: T3, CYP3A4; assay: as §5, with “CYP3A4” for “CYP2C9”, “luciferin-IPA” for “luciferin-H”; assay type: ADME, tissue-based; conditions: probe luciferin-IPA, with ABT 10 mM
CYP2C9 [29] = target: T4, CYP2C9; assay: as §5, with “days” for “days in presence of 10 mM ABT”; assay type: ADME, tissue-based; conditions: probe luciferin-H

T4 sequence (P11712 whole entry): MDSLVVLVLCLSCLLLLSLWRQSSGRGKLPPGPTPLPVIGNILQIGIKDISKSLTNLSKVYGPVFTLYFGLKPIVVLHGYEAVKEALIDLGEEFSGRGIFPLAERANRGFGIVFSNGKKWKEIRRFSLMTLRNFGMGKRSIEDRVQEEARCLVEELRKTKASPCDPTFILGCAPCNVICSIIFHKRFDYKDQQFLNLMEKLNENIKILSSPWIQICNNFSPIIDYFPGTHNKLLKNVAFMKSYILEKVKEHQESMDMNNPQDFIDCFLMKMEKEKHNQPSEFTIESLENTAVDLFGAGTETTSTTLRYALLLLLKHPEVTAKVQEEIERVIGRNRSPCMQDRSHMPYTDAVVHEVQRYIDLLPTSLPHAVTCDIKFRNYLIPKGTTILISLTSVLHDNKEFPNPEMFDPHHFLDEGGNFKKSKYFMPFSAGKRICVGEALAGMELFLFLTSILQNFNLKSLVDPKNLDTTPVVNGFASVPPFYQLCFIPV
T3 sequence (P08684 whole entry): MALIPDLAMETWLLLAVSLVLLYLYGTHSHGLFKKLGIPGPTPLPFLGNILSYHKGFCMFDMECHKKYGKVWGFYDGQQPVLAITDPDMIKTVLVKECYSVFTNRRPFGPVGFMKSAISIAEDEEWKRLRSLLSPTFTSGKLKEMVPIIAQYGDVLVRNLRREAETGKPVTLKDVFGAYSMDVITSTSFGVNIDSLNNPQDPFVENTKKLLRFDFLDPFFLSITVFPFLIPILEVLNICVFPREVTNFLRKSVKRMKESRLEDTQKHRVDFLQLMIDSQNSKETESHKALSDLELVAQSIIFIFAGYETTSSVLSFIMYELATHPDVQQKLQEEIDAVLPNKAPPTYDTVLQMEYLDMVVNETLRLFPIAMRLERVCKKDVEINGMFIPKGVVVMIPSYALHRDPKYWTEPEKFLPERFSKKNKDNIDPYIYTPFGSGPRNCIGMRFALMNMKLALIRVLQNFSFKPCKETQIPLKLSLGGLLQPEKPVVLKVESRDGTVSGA
T6 sequence (P11712 whole entry): as the sequence (P11712 whole entry) above
T5 sequence (P08684 whole entry): as the sequence (P08684 whole entry) above

For `COc1ccccc1/C(Br)=C(\NC(=O)c1ccc([N+](=O)[O-])cc1)C(=O)N1CCCCC1`, the “Ratio EC50” value [1] was 7.3, the half-life at 1 µM [2] was 0.0483 h and the EC50 (Hepatitis B virus [3]) was 5700 nM. It also gave a CC50 [4] of over 30000 nM, an EC50 (Hepatitis B virus [5]) of 780 nM and a half-life at 1 µM [6] of over 9.33 h.

`COC(=O)C1=C(C)NC(c2ncc(F)cc2F)=N[C@H]1c1ccc(F)cc1Cl` gave a half-life at 1 µM [2] of 3.15 h, an EC50 (Hepatitis B virus [3]) of 220 nM and an EC50 (Hepatitis B virus [5]) of 260 nM. For the same molecule, the half-life at 1 µM [6] was 7.18 h.

In the case of `O=C(Nc1ccc(F)cc1)c1ccc(CF)c(S(=O)(=O)N2CCOCC(O)C2)c1` (centres undefined), the “Ratio EC50” value [1] is reported as 11, the half-life at 1 µM [2] is reported as 0.342 h and the EC50 (Hepatitis B virus [3]) is reported as 2100 nM. The CC50 [4] was over 30000 nM, the EC50 (Hepatitis B virus [5]) was 200 nM and the half-life at 1 µM [6] was 2.65 h.

With `CCOC(=O)C1=C(CN2CCOCC2)NC(c2nccs2)=NC1c1ccc(F)cc1Br` (centres undefined) the half-life at 1 µM [2] was 0.128 h, the EC50 (Hepatitis B virus [3]) was 590 nM and the EC50 (Hepatitis B virus [5]) was 11 nM. It also gave a half-life at 1 µM [6] of over 9.33 h.

With `CCCC(C(=O)OCCN(CC)CC)(c1ccccc1)c1ccccc1` [PROADIFEN] the inhibition at 1 h, 50 µM (CYP1A2 [7]) was 2.2%, the Activity (Hepatitis B virus [8]) was “inactive” and the “inhibition (INH)” value (Cytochrome P450 1A2 [9]) was “Active”. For the same molecule, the Activity (Hepatitis B virus [10]) was 20%, the Activity (HepaRG [11]) was “Non-Toxic” and the “inhibition (INH)” value (Cytochrome P450 1A2 [12]) was “Active”. The inhibition at 1 h, 50 µM (CYP3A4 [13]) was 83.3%, the inhibition at 1 h, 50 µM (CYP2C9 [14]) was 82.1% and the inhibition at 1 h, 50 µM (CYP2C9 [15]) was 21.4%. The Activity (HepaRG [16]) was “Non-Toxic”, the inhibition at 1 h, 50 µM (CYP3A4 [17]) was 80.3% and the “inhibition (INH)” value (Cytochrome P450 3A4 [18]) was “Active”. For the same molecule, the inhibition at 1 h, 50 µM (CYP1A2 [19]) was 88.8%, the “inhibition (INH)” value (Cytochrome P450 2C9 [20]) was “Active” and the inhibition at 1 h, 50 µM (CYP2C9 [21]) was 36.9%. For the same molecule, the “inhibition (INH)” value (Cytochrome P450 3A4 [22]) was “Active”, the inhibition at 1 h, 50 µM (CYP3A4 [23]) was 93% and the “inhibition (INH)” value (Cytochrome P450 2C9 [24]) was “Active”. It also gave an inhibition at 1 h, 50 µM (CYP1A2 [25]) of 30.8%, an Activity (Hepatocyte) of 10% and an inhibition at 1 h, 50 µM (CYP1A2 [26]) of 39.2%. For the same molecule, the Activity (Hepatitis B virus [27]) was “inactive”, the inhibition at 1 h, 50 µM (CYP3A4 [28]) was 90.3% and the inhibition at 1 h, 50 µM (CYP2C9 [29]) was 42.2%.
